Measured values: patent US20130072430A1, “METHODS FOR TREATMENT OR PROPHYLAXIS OF KIDNEY OR LIVER DYSFUNCTION” (NPS PHARMACEUTICALS, INC., priority 2010, published 2013)

Test system: Human patients with short bowel syndrome
Test: Example 1: kidney diagnostic biomarkers (urea nitrogen, creatinine, GFR) in short bowel syndrome patients, every four weeks for 24 weeks
Format: in vivo
Design: CREATININE (RATE BLANKED) Change from Baseline, Median / GFR, Median / GFR Change from Baseline, Median / UREA NITROGEN, Median / UREA NITROGEN Change from Baseline, Median: unit not given here
Settings: 0.05 mg/kg/day; for CREATININE (RATE BLANKED), Median: unit assumed
Method: Human patients with short bowel syndrome were divided into three groups: a control group (16 total individuals) to receive placebo, an experimental group (35 total individuals) to receive teduglutide at 0.05 mg/kg/day throughout the study, and an experimental group (32 total individuals) to receive teduglutide at 0.1 mg/kg/day throughout the study. Patients were treated by subcutaneous injection of placebo or the appropriate dose of teduglutide. As individuals with short bowel syndrome are likely to experience associated liver and kidney disease, known biomarkers of liver and kidney function were monitored every four weeks, for 24 weeks. The liver biomarkers tested included total bilirubin, ALT and AST and ALP. The kidney biomarkers tested included urea nitrogen, creatinine and GFR. Before administration of placebo or teduglutide, diagnostic biomarker levels were tested to establish a baseline for each individual.
To visualize the effect of GLP-2 on the levels of the diagnostic biomarkers, the average change from baseline was calculated for the placebo and teduglutide treated groups for each visit after a baseline was established. The average change from baseline of each group is depicted in FIGS. […]. The numerical figures for each diaanostic biomarker at each time point are depicted in Table 1.
The raw data for this sorting is reproduced in Table 2 below.

CC[C@H](C)[C@H](NC(=O)[C@H](Cc1ccccc1)NC(=O)[C@H](CC(=O)O)NC(=O)[C@H](CCCNC(=N)N)NC(=O)[C@H](C)NC(=O)[C@H](C)NC(=O)[C@H](CC(C)C)NC(=O)[C@H](CC(N)=O)NC(=O)[C@H](CC(=O)O)NC(=O)[C@H](CC(C)C)NC(=O)[C@@H](NC(=O)[C@@H](NC(=O)[C@H](CC(N)=O)NC(=O)[C@H](CCSC)NC(=O)[C@H](CCC(=O)O)NC(=O)[C@H](CC(=O)O)NC(=O)[C@H](CO)NC(=O)[C@H](Cc1ccccc1)NC(=O)[C@H](CO)NC(=O)CNC(=O)[C@H](CC(=O)O)NC(=O)CNC(=O)[C@@H](N)Cc1c[nH]cn1)[C@@H](C)O)[C@@H](C)CC)C(=O)N[C@@H](CC(N)=O)C(=O)N[C@@H](Cc1c[nH]c2ccccc12)C(=O)N[C@@H](CC(C)C)C(=O)N[C@H](C(=O)N[C@@H](CCC(N)=O)C(=O)N[C@H](C(=O)N[C@@H](CCCCN)C(=O)N[C@H](C(=O)N[C@H](C(=O)N[C@@H](CC(=O)O)C(=O)O)[C@@H](C)O)[C@@H](C)CC)[C@@H](C)O)[C@@H](C)CC [teduglutide]
CREATININE (RATE BLANKED) Change from Baseline, Mean (SD) (DW4): 1.2 (12.01) | CREATININE (RATE BLANKED) Change from Baseline, Median (DW4): 1.5 | CREATININE (RATE BLANKED), Mean (SD) (DW4): 84.8 (30.01) | GFR Change from Baseline, Mean (SD) (DW4): −1.4 (12.80) | GFR Change from Baseline, Median (DW4): −0.6 | GFR, Mean (SD) (DW4): 86.1 (36.99) | GFR, Median (DW4): 77.0 | UREA NITROGEN Change from Baseline, Mean (SD) (DW4): −0.4 (2.16) | UREA NITROGEN Change from Baseline, Median (DW4): −0.4 | UREA NITROGEN, Mean (SD) (DW4): 5.3 (2.09) | UREA NITROGEN, Median (DW4): 4.9 | CREATININE (RATE BLANKED), Median (DW4): 80 µmol/L | CREATININE (RATE BLANKED) Change from Baseline, Mean (SD) (DW8): −1.1 (15.51) | CREATININE (RATE BLANKED) Change from Baseline, Median (DW8): 0.0 | CREATININE (RATE BLANKED), Mean (SD) (DW8): 81.9 (27.34) | GFR Change from Baseline, Mean (SD) (DW8): −0.1 (19.13) | GFR Change from Baseline, Median (DW8): 1.1 | GFR, Mean (SD) (DW8): 89.1 (39.16) | GFR, Median (DW8): 81.6 | UREA NITROGEN Change from Baseline, Mean (SD) (DW8): −0.4 (2.02) | UREA NITROGEN Change from Baseline, Median (DW8): −0.3 | UREA NITROGEN, Mean (SD) (DW8): 5.3 (1.58) | UREA NITROGEN, Median (DW8): 5.2 | CREATININE (RATE BLANKED), Median (DW8): 71 µmol/L | CREATININE (RATE BLANKED) Change from Baseline, Mean (SD) (DW12): 1.8 (16.71) | CREATININE (RATE BLANKED) Change from Baseline, Median (DW12): 8.0 | CREATININE (RATE BLANKED), Mean (SD) (DW12): 86.8 (29.41) | GFR Change from Baseline, Mean (SD) (DW12): −3.1 (12.18) | GFR Change from Baseline, Median (DW12): −5.0 | GFR, Mean (SD) (DW12): 85.7 (39.48) | GFR, Median (DW12): 76.5 | UREA NITROGEN Change from Baseline, Mean (SD) (DW12): −0.8 (1.86) | UREA NITROGEN Change from Baseline, Median (DW12): −0.5 | UREA NITROGEN, Mean (SD) (DW12): 4.8 (1.69) | UREA NITROGEN, Median (DW12): 4.4 | CREATININE (RATE BLANKED), Median (DW12): 80 µmol/L | CREATININE (RATE BLANKED) Change from Baseline, Mean (SD) (DW16): −1.6 (13.06) | CREATININE (RATE BLANKED) Change from Baseline, Median (DW16): 0.0 | CREATININE (RATE BLANKED), Mean (SD) (DW16): 82.1 (29.95) | GFR Change from Baseline, Mean (SD) (DW16): 0.8 (12.08) | GFR Change from Baseline, Median (DW16): 0.9 | GFR, Mean (SD) (DW16): 89.8 (38.02) | GFR, Median (DW16): 84.1 | UREA NITROGEN Change from Baseline, Mean (SD) (DW16): −0.5 (2.13) | UREA NITROGEN Change from Baseline, Median (DW16): −0.3 | UREA NITROGEN, Mean (SD) (DW16): 5.0 (1.73) | UREA NITROGEN, Median (DW16): 4.4 | CREATININE (RATE BLANKED), Median (DW16): 79 µmol/L | CREATININE (RATE BLANKED) Change from Baseline, Mean (SD) (DW20): 0.7 (13.11) | CREATININE (RATE BLANKED) Change from Baseline, Median (DW20): 0.0 | CREATININE (RATE BLANKED), Mean (SD) (DW20): 85.6 (28.77) | GFR Change from Baseline, Mean (SD) (DW20): −2.0 (16.60) | GFR Change from Baseline, Median (DW20): 0.9 | GFR, Mean (SD) (DW20): 83.2 (32.77) | GFR, Median (DW20): 74.0 | UREA NITROGEN Change from Baseline, Mean (SD) (DW20): −0.6 (1.94) | UREA NITROGEN Change from Baseline, Median (DW20): −0.3 | UREA NITROGEN, Mean (SD) (DW20): 5.0 (1.80) | UREA NITROGEN, Median (DW20): 5.2 | CREATININE (RATE BLANKED), Median (DW20): 77.5 µmol/L | CREATININE (RATE BLANKED) Change from Baseline, Mean (SD) (DW24): −2.9 (14.03) | CREATININE (RATE BLANKED) Change from Baseline, Median (DW24): −0.5 | CREATININE (RATE BLANKED), Mean (SD) (DW24): 82.8 (31.57)
